The record followed here is patent US7662860B2 (priority 2003, dated 2010).

The assay concerns the target SARS-CoV virus 3CL protease protein (Severe acute respiratory syndrome coronavirus, UniProt P0C6X7). Nature of the assay: biochemical. The assay is classed as binding.

Molecules are shown by their SMILES.

`CN(C)CCCSc1ccccc1NC(=O)C=Cc1ccccc1` [cinanserin, 2′-(3-dimethylaminopropylthio)cinnamanilide] yielded a kd of 0.00993 s⁻¹. Besides, under “read-out: ka”, the kon came to 38600 M⁻¹ s⁻¹.
